# Measured values from EP0603240B1, “SAFENING HERBICIDAL PYRAZOLYLSULFONYLUREAS” (priority 1991, dated 1993).
# What was measured:
# Format in all cases: in vivo
# corn [1] = assay: Example 20, Procedure II: Herbicide No. 1 + EPTC or ERADICANE EXTRA with Antidote Nos. 5 and 15
# Experimental: (§1) Containers were filled and compacted with a fumigated silt loam top soil to a depth of about 1.3 cm from the top of the container. A first container was designated as an untreated control, a second container was designated as a herbicide control, and a third container was designated as a herbicide + antidote test container. Each of the containers was seeded with a crop species. A measured amount of herbicide dispersed or dissolved in acetone was applied to a measured quantity of soil. To this same quantity of soil treated with herbicide, there was added a measured amount of antidote dispersed or dissolved in acetone. The quantity of soil treated with the herbicide and antidote was thoroughly mixed to incorporate the herbicide and antidote in the soil uniformly. The seed bed in the third container of soil was covered with the soil treated with the herbicide and antidote and the container was leveled. For each test series, the seed beds of the first and second containers were likewise covered by soil layers. the cover layer of the first container was not treated with herbicide or antidote.
# (§2) The containers were then placed on a bench in a greenhouse and sub-irrigated as required for the duration of the test. […] Plant response is measured in terms of percent injury. Antidote efficacy is indicated as the difference in plant injury by the herbicide(s) without the antidote and with the antidote.
# (§3) This procedure is the same as Procedure I, but modified in the manner that after incorporation of the chemicals (herbicide and antidote) the containers with the covered seedbed were treated with an initial overhead irrigation equivalent to 0.6 cm rainfall, then subsequently sub-irrigated as required on greenhouse benches.
# This example describes experiments designed to test two generally efficacious antidotal compounds, i.e., Antidote Nos. 5 and 15, against the herbicidal action of the sulfonylurea compound, Herbicide No. 1, and the commercial herbicides EPTC (Herbicide No. 4) and ERADICANE® EXTRA (EPTC + R-29148, Antidote No. 5). Procedure II above was used in conducting these experiments. Formulations of EPTC and ERADICANE EXTRA were applied onto soil cover layers (to be applied over seed beds), followed by sequential pipetting of Herbicide No. 1 and Antidote No. 15. The soil was mixed to homogeneity and spread over the seed beds followed by 0.6 cm of overhead irrigation.
# corn [2] = assay: Example 12, Procedure II: Herbicide No. 1 + acetochlor (No. 6) with thirteen antidotes
# How it was run: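 Herbicide and antidote in acetone were mixed into silt loam used to cover the corn seed bed, alongside untreated and herbicide-only controls. After incorporation, an overhead irrigation equal to 0.6 cm rainfall was given, then sub-irrigation in a greenhouse. Injury was scored as percent; safening is the injury difference without versus with antidote.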
# corn [3] = assay: Example 10, Procedure II: Herbicide No. 1 + propachlor (No. 5) with antidotes
# Experimental: as §1, §2, §3
# In this test, the safening effect of various antidotes on the herbicidal combination of Herbicide No. 1 and another α-chloroacetanilide co-herbicide, propachlor, (Herbicide No. 5) was investigated. Propachlor is the active ingredient in the commercial herbicide RAMROD®. Procedure II was also used in this test as in the preceding example.
# [4] = system: barnyardgrass (Echinochloa crusgalli); assay: Example 3, Procedure I: antidotes against Herbicide No. 1
# Experimental: as §1, §2
# In the series of greenhouse tests described below, for routine screening purposes the herbicide/antidote compositions were tested in crop/weed combinations involving corn as the crop and either or both of the weeds barnyardgrass (Echinochloa crusgalli), a monocotyledonous weed, and velvetleaf (Abutilon theophrasti), a dicotyledonous weed. In the tables below, these weeds are indicated by the symbols "BYG" and "VL", respectively.
# This example details the results of tests with Antidote Nos. 12, 15 and 16 to safen Herbicide No. 1 over application rates ranging from 4.48 kg/ha down to 0.56 kg/ha, in corn in the presence of barnyardgrass. Procedure I described above was used in these tests.
# corn [5] = assay: Example 4, Procedure I: Antidote Nos. 15 and 16 against Herbicide No. 1
# Experimental: as §1, §2
# This example describes tests with Antidote Nos. 15 and 16 to safen Herbicide No. 1 according to Procedure I using corn and the weeds barnyardgrass and velvetleaf as the test plants.
# corn [6] = assay: Example 26, field trials, preemergence surface application (PRE): corn growth reduction
# Experimental: In order to better understand and to confirm the results of greenhouse tests with herbicidal compositions comprising representative compounds according to Formula I and an antidote with and without a co-herbicide, a large number of field trials were conducted. This example provides a summary of those field trials.
# The primary purpose of the field trials summarized herein was to ascertain the amount of corn injury caused by a compound according to Formula I. viz. Herbicide No. 1, with and without a co-herbicide of the α-chloroacetanilide class, viz., Herbicide Nos. 6 and 7, and the extent that any corn injury could be safened by a dichloroacetamide antidotal compound, viz., Antidote No. 15.
# Corn injury is generally expressed, in broad terms, in stand reduction, growth reduction, malformed plants and other more specific effects. For purposes of the summary here, the results of a plurality of field trials are expressed in terms of growth reduction (GR), i.e., a significant reduction in plant height of the corn stand. A common criteria for commercially-acceptable corn injury is an amount equal to or less than 10% malformed plants or stand reduction and for present reporting purposes, no greater than about 15% growth reduction. The corn injury/safening described for these field trials refers to commercially-unacceptable to commercially-acceptable performance.
# In the field trials from a wide distribution of trial locations, soil types (all having in excess of 2% organic matter), climatic effects, etc., the test chemicals were applied as tank mixes in various modes of application, i.e., pre-plant incorporation (PPI) and preemergence surface application (PRE). Test plots were small plots with three replications in a randomized complete block design. Observations were made and recorded in a period of from 31-50 days after treatment.
# [7] = Herbicide No.1 0.14 kg/ha + Herbicide No.6 2.24 kg/ha, antidote rate 2.24 kg/ha
# [8] = Herbicide No.1 0.14 kg/ha + Herbicide No.6 2.24 kg/ha, antidote rate 8.96 kg/ha
# [9] = Herbicide No.1 0.56 kg/ha + Herbicide No.6 2.24 kg/ha, antidote rate 2.24 kg/ha
# [10] = Herbicide No.1 0.56 kg/ha + Herbicide No.6 2.24 kg/ha, antidote rate 8.96 kg/ha
# [11] = Herbicide No.1 0.14 kg/ha + Herbicide No.5 4.48 kg/ha, antidote rate 2.24 kg/ha
# [12] = Herbicide No.1 0.14 kg/ha + Herbicide No.5 4.48 kg/ha, antidote rate 8.96 kg/ha
# [13] = Herbicide No.1 0.56 kg/ha + Herbicide No.5 4.48 kg/ha, antidote rate 2.24 kg/ha
# [14] = Herbicide No.1 0.56 kg/ha + Herbicide No.5 4.48 kg/ha, antidote rate 8.96 kg/ha
# [15] = Herb. No. 1 4.48 kg/ha + antidote 0.56 kg/ha
# [16] = Herb. No. 1 4.48 kg/ha + antidote 2.24 kg/ha
structure (smiles),measurement,setting,value
COC(=O)c1c(Cl)nn(C)c1S(=O)(=O)NC(=O)Nc1nc(OC)cc(OC)n1 [No.1],% Injury Corn,corn [1]; Herbicide No.1 0.56 kg/ha + ERADICANE EXTRA 2.24 kg/ha,55%
same,% Injury Corn,corn [1]; Herbicide No.1 0.56 kg/ha + ERADICANE EXTRA 4.48 kg/ha,65%
same,% Injury Corn,corn [1]; Herbicide No.1 0.56 kg/ha + ERADICANE EXTRA 6.72 kg/ha,75%
same,% Injury Corn,"corn [1]; Herbicide No.1 0.56 kg/ha + No. 4 2.24 kg/ha, no antidote",75%
same,% Injury Corn,"corn [1]; Herbicide No.1 0.56 kg/ha + No. 4 4.48 kg/ha, no antidote",35%
same,% Injury Corn,"corn [1]; Herbicide No.1 0.56 kg/ha + No. 4 6.72 kg/ha, no antidote",85%
same,% Injury Corn,corn [1]; Herbicide No.1 0.56 kg/ha alone,70%
same,% Injury Corn,corn [1]; Herbicide No.1 2.24 kg/ha + ERADICANE EXTRA 2.24 kg/ha,90%
same,% Injury Corn,corn [1]; Herbicide No.1 2.24 kg/ha + ERADICANE EXTRA 4.48 kg/ha,85%
same,% Injury Corn,corn [1]; Herbicide No.1 2.24 kg/ha + ERADICANE EXTRA 6.72 kg/ha,95%
same,% Injury Corn,"corn [1]; Herbicide No.1 2.24 kg/ha + No. 4 2.24 kg/ha, no antidote",90%
same,% Injury Corn,"corn [1]; Herbicide No.1 2.24 kg/ha + No. 4 4.48 kg/ha, no antidote",70%
same,% Injury Corn,"corn [1]; Herbicide No.1 2.24 kg/ha + No. 4 6.72 kg/ha, no antidote",90%
same,% Injury Corn,corn [1]; Herbicide No.1 2.24 kg/ha alone,85%
C=CCN(CC=C)C(=O)C(Cl)Cl [compound 1],% Injury Corn,corn [2]; [7],10%
same,% Injury Corn,corn [2]; [8],10%
same,% Injury Corn,corn [2]; [9],15%
same,% Injury Corn,corn [2]; [10],15%
same,% Injury Corn,corn [3]; [11],10%
same,% Injury Corn,corn [3]; [12],0%
same,% Injury Corn,corn [3]; [13],15%
same,% Injury Corn,corn [3]; [14],0%
CC1(C)OC(c2ccco2)CN1C(=O)C(Cl)Cl (stereo not shown) [compound 15],% Injury BYG,[4]; Herb. No. 1 0.56 kg/ha + antidote 0.56 kg/ha,50%
same,% Injury BYG,[4]; Herb. No. 1 0.56 kg/ha + antidote 2.24 kg/ha,35%
same,% Injury BYG,[4]; Herb. No. 1 0.56 kg/ha + antidote 8.96 kg/ha,10%
same,% Injury BYG,[4]; Herb. No. 1 1.12 kg/ha + antidote 0.56 kg/ha,75%
same,% Injury BYG,[4]; Herb. No. 1 1.12 kg/ha + antidote 2.24 kg/ha,60%
same,% Injury BYG,[4]; Herb. No. 1 1.12 kg/ha + antidote 8.96 kg/ha,60%
same,% Injury BYG,[4]; Herb. No. 1 2.24 kg/ha + antidote 0.56 kg/ha,60%
same,% Injury BYG,[4]; Herb. No. 1 2.24 kg/ha + antidote 2.24 kg/ha,70%
same,% Injury BYG,[4]; Herb. No. 1 2.24 kg/ha + antidote 8.96 kg/ha,50%
same,% Injury BYG,[4]; [15],75%
same,% Injury BYG,[4]; [16],70%
same,% Injury BYG,[4]; Herb. No. 1 4.48 kg/ha + antidote 8.96 kg/ha,80%
same,% Injury BYG,"[4]; antidote 8.96 kg/ha alone, no herbicide",0%
same,% Injury Corn,corn [5]; Herb. No. 1 6.72 kg/ha + antidote 0.56 kg/ha,35%
same,% Injury Corn,corn [5]; Herb. No. 1 6.72 kg/ha + antidote 2.24 kg/ha,50%
same,% Injury Corn,corn [2]; [7],15%
same,% Injury Corn,corn [2]; [8],10%
same,% Injury Corn,corn [2]; [9],20%
same,% Injury Corn,corn [2]; [10],5%
same,% Injury Corn,corn [3]; [11],0%
same,% Injury Corn,corn [3]; [12],0%
same,% Injury Corn,corn [3]; [13],10%
same,% Injury Corn,corn [3]; [14],10%
"CC1(C)OC(c2ccco2)CN1C(=O)C(Cl)Cl (stereo not shown) [Antidote No. 15, Oxazolidine, 3-(dichloroacetyl)-5-(2-furanyl)-2,2-dimethyl]",% Injury Corn,"corn [1]; Herbicide No.1 0.56 kg/ha + No. 4 2.24 kg/ha, Antidote No. 15 0.18 kg/ha",5%
same,% Injury Corn,"corn [1]; Herbicide No.1 0.56 kg/ha + No. 4 4.48 kg/ha, Antidote No. 15 0.35 kg/ha",15%
same,% Injury Corn,"corn [1]; Herbicide No.1 0.56 kg/ha + No. 4 6.78 kg/ha, Antidote No. 15 0.56 kg/ha",0%
same,% Injury Corn,"corn [1]; Herbicide No.1 2.24 kg/ha + No. 4 2.24 kg/ha, Antidote No. 15 0.18 kg/ha",35%
same,% Injury Corn,"corn [1]; Herbicide No.1 2.24 kg/ha + No. 4 4.48 kg/ha, Antidote No. 15 0.35 kg/ha",15%
same,% Injury Corn,"corn [1]; Herbicide No.1 2.24 kg/ha + No. 4 6.78 kg/ha, Antidote No. 15 0.56 kg/ha",15%
same,% Injury Corn,corn [5]; [15],10%
same,% Injury Corn,corn [5]; [16],13%
same,"safening of corn, assessment in words","corn [5]; Herbicide No. 1, Table 4",substantial safening of Herbicide No. 1
same,"safening of corn, assessment in words","corn [3]; Herbicide Nos. 1 and 5, Table 10",best safening effect
same,"crop injury, assessment in words",corn [6]; Antidote No. 15 to Herbicide No. 1 ratio increased to 3:1,reduced crop injury even further
same,corn growth reduction (GR),corn [6]; Herbicide No. 1 0.07 kg/ha + acetochlor + Antidote No. 15,8.7%
same,corn growth reduction (GR),corn [6]; Herbicide No. 1 0.14 kg/ha + acetochlor + Antidote No. 15,8.2%
same,corn growth reduction (GR),corn [6]; Herbicide No. 1 0.28 kg/ha + acetochlor + Antidote No. 15,14.5%
CC1(C(Cl)Cl)OCCO1 [compound 13],% Injury Corn,corn [2]; [7],10%
same,% Injury Corn,corn [2]; [8],30%
same,% Injury Corn,corn [2]; [9],35%
same,% Injury Corn,corn [2]; [10],40%
same,% Injury Corn,corn [3]; [11],0%
same,% Injury Corn,corn [3]; [12],15%
same,% Injury Corn,corn [3]; [13],45%
same,% Injury Corn,corn [3]; [14],10%
